Laboratory results: US10195208B2, “Combination therapy” (Novartis AG, priority 2014, dated 2019)
Values joined by “and” are separate entries in the source; they are usually repeats but may differ in a detail not shown here. Equal values may be shown once.

What was measured:
[1] = system: EGFR and cMET phosphorylation; assay: Acute PD western blot of pEGFR and pMET in resistant NCI-HCC827 tumors; format: in vivo, SCID beige mice; settings: single dose; Compound A 30 mg/kg, INC280 10 mg/kg; tumors taken 6 hours post dose
Text: SCID beige mice bearing the Erlotinib resistant tumors (Animals 2-5), n=1 per group, a total of 4 groups and randomized 50 days post tumor fragment implantation with an average tumor volume of 1236.18 mm^3 and SD of 316.57 mm^3. Compound A resistant HCC827 tumors ([…]) were randomized into 4 groups (n=3 mice per group) 24 days post tumor fragment implantation with an average tumor volume of 963.24 mm^3 with SD 179.56 mm^3. Animals in each group received once daily oral administration of Compound A at 30 mg/kg or twice daily INC280-AA-3 at 10 mg/kg alone or in combination.
Evaluation of target inhibition of pEGFR and pMET were done by western blot analysis. 40 […] of tumor lysate proteins were electrophoresed per sample using Criterion 4-12% Bis-Tris gels (Bio-Rad, Cat #345-0124). Upon completion of protein transfer, membranes were incubated with 5% BSA (Sigma) in TBST (25 mM Tris, 150 mM NaCl, 0.1% Tween-20) for 1 h at room temperature to block non-specific binding. […]

[2] = system: Compound A resistant NSCLC HCC827 tumor; assay: Efficacy study in Compound A resistant HCC827 mouse xenograft model (GNF-11-308-138); format: in vivo, SCID beige mice; settings: for Individual tumor volume: single animals; for Tumor volume, group Mean: n=6; for Mean initial Tumor Volume (mm^3 ± SE): initial day of dosing
[3] = Tolerability (body weight) in Compound A resistant HCC827 mouse xenograft model; settings: for Final BW (g) mean ± SD: day 14; for BW (%) mean, percent body weight change: day 14 versus day of treatment initiation
Method: INC280-AA-3 was formulated in 0.25% MC (methylcellulose) 0.05% Tween 80 in water, solution. […] Animals were weighed on dosing days and doses were body weight adjusted. Tumor volumes were measured by digital caliper 3 times a week and body weights of all animals were recorded throughout the study.
Body weight was monitored daily and the % change in body weight was calculated as (BWcurrent−BWinitial)/(BWinitial)×100. Data is presented as percent body weight change from the day of treatment initiation.

HCC827 = assay: Cell proliferation assay (CellTiter-Glo), dose matrix combination, HCC827 parental; format: cell-based, human; settings: HCC827 parental line, 72 hours
Method: HCC827 was obtained from ATCC. HCC827 GR5 (resistant to Gefitinib) was obtained from Jeff Engleman lab at Massachusetts General Hospital. Both cells were cultured in RPMI-1640 (ATCC, #30-2001) with 10% FBS (Thermo scientific, #SH30071.03) and maintained in a 37° C., 5% CO2 incubator. Cells were passaged twice a week using TrypLE™ Express (Invitrogen, #12604-013), an animal origin-free recombinant enzyme used for dissociating adherent mammalian cells compare to the regular trypsin.
Cell viability was determined by measuring cellular ATP content using the CellTiter-Glo® (CTG) luminescent cell viability assay (Promega #G7573) according to the manufacturer's protocol. […] At the end of the drug treatment, 100 ul CTG reagent was added to each well to lyse the cells, and luminescence signals were recorded in the Envision plate reader (Perkin Elmer).
To evaluate the combination effect in a non-bias way and to identify synergistic effect at all possible concentrations, the combination studies were conducted with a “dose matrix”, where a combination is tested in all possible permutations of serially-diluted compounds. […] The synergistic interaction was analyzed using Chalice software (CombinatoRx, Cambridge Mass.). Synergy was calculated by comparing a combination's response to those of its single agents, against the drug-with-itself dose-additive reference model. […]

[4] = day 0 post dosing (day 22 post implant)
[5] = day 2 post dosing (day 24 post implant)
[6] = day 5 post dosing (day 27 post implant)
[7] = day 7 post dosing (day 29 post implant)
[8] = day 9 post dosing (day 31 post implant)
[9] = day 12 post dosing (day 34 post implant)
[10] = day 14, Compound A 30 mg/kg QD, INC280 10 mg/kg BID, oral
[11] = day 14 post dosing (day 36 post implant)
[12] = Compound A 30 mg/kg QD, INC280 10 mg/kg BID, oral
[13] = Compound A 30 mg/kg QD, INC280 10 mg/kg BID

| Compound | inhibition of EGFR and cMET phosphorylation in tumor lysates (western) [1] | Individual tumor volume [2, 4] | Tumor volume, group Mean ([2]; day 0 post dosing) [mm^3] | Individual tumor volume [2, 5] | Tumor volume, group Mean ([2]; day 2 post dosing) [mm^3] | Individual tumor volume [2, 6] | Tumor volume, group Mean ([2]; day 5 post dosing) [mm^3] | Individual tumor volume [2, 7] | Tumor volume, group Mean ([2]; day 7 post dosing) [mm^3] | Individual tumor volume [2, 8] | Tumor volume, group Mean ([2]; day 9 post dosing) [mm^3] | Individual tumor volume [2, 9] | Tumor volume, group Mean ([2]; day 12 post dosing) [mm^3] | Mean final Tumor Volume (mm^3 ± SE) [2, 10] [mm^3] | Individual tumor volume [2, 11] | Tumor volume, group Mean ([2]; day 14 post dosing) [mm^3] | Mean initial Tumor Volume (mm^3 ± SE) [2, 12] [mm^3] | Final BW (g) mean ± SD [3, 13] [g] | BW (%) mean, percent body weight change [3] [%] | Initial BW (g) mean ± SD [3, 13] [g] | further results |
| --- | --- | --- | --- | --- | --- | --- | --- | --- | --- | --- | --- | --- | --- | --- | --- | --- | --- | --- | --- | --- | --- |
| CNC(=O)c1ccc(-c2cnc3ncc(Cc4ccc5ncccc5c4)n3n2)cc1F [INC280, 2-fluoro-N-methyl-4-[(7-quinolin-6-yl-methyl)-imidazo[1,2-b]triazin-2-yl]benzamide] | selective depletion of pEGFR and pMET expression | 456.20 mm^3 and 520.06 mm^3 and 543.63 mm^3 and 640.13 mm^3 and 655.67 mm^3 and 713.33 mm^3 | 588.17 | 531.11 mm^3 and 641.24 mm^3 and 502.64 mm^3 and 784.24 mm^3 and 667.19 mm^3 and 674.14 mm^3 | 633.43 | 869.50 mm^3 and 753.37 mm^3 and 556.93 mm^3 and 822.50 mm^3 and 628.26 mm^3 and 834.83 mm^3 | 744.23 | 690.94 mm^3 and 653.24 mm^3 and 589.97 mm^3 and 675.03 mm^3 and 699.40 mm^3 and 627.01 mm^3 | 655.93 | 646.47 mm^3 and 649.16 mm^3 and 572.94 mm^3 and 510.69 mm^3 and 613.71 mm^3 and 594.99 mm^3 | 597.99 | 688.69 mm^3 and 617.11 mm^3 and 487.07 mm^3 and 531.80 mm^3 and 432.97 mm^3 and 585.67 mm^3 | 557.22 | 760.84 ± 81.62 | 1030.71 mm^3 and 948.57 mm^3 and 521.81 mm^3 and 674.65 mm^3 and 598.62 mm^3 and 790.69 mm^3 | 760.84 | 588.17 ± 39.56 | 19.95 ± 1.58 | −3.83 | 20.74 ± 0.79 | Mean T/C (percent treated versus control; negative = regression) [2, 10]: 23%; tolerability in words ([3]; 14 day treatment, Compound A 30 mg/kg QD, INC280 10 mg/kg BID): well tolerated for rest of the study; group body weight change ([3]; day 7): −8.5%; group body weight change ([3]; day 8): −5.66% |
| Cc1cc(C(=O)Nc2nc3cccc(Cl)c3n2[C@@H]2CCCCN(C(=O)/C=C/CN(C)C)C2)ccn1 [Compound A, (R,E)-N-(7-chloro-1-(1-(4-(dimethylamino)but-2-enoyl)azepan-3-yl)-1H-benzo[d]imidazol-2-yl)-2-methylisonicotinamide] | selective depletion of pEGFR and pMET expression | 470.34 mm^3 and 502.24 mm^3 and 547.37 mm^3 and 597.98 mm^3 and 657.77 mm^3 and 694.21 mm^3 | 578.32 | 425.76 mm^3 and 474.70 mm^3 and 500.47 mm^3 and 718.94 mm^3 and 679.81 mm^3 and 723.63 mm^3 | 587.22 | 447.17 mm^3 and 509.01 mm^3 and 478.72 mm^3 and 709.28 mm^3 and 723.82 mm^3 and 730.32 mm^3 | 599.72 | 641.63 mm^3 and 591.63 mm^3 and 523.15 mm^3 and 792.15 mm^3 and 837.06 mm^3 and 800.58 mm^3 | 697.70 | 595.65 mm^3 and 822.67 mm^3 and 611.23 mm^3 and 877.37 mm^3 and 891.82 mm^3 and 940.84 mm^3 | 789.93 | 932.76 mm^3 and 885.77 mm^3 and 742.37 mm^3 and 1125.55 mm^3 and 1019.63 mm^3 and 1028.22 mm^3 | 955.72 | 1063.26 ± 93.45 | 882.62 mm^3 and 1115.99 mm^3 and 727.98 mm^3 and 1076.46 mm^3 and 1368.14 mm^3 and 1208.36 mm^3 | 1063.26 | 578.32 ± 35.84 | 22.58 ± 1.00 | 5.39 | 21.43 ± 0.77 | single agent response, cell viability (HCC827): only respond to Compound A; anti-tumor activity in words ([2]; 14 days, Compound A 30 mg/kg QD, INC280 10 mg/kg BID, oral, versus vehicle): not significantly different from vehicle |
